Measurements from US20080108676A1, “Benzothiazolecarboxamides” (New Benzothiazolecarboxamides, priority 2004, published 2008).

Each molecule was assayed against T1, hVR1 (Homo sapiens, UniProt Q8NER1) (assay: hVR1 FLIPR (Fluorometric Image Plate Reader) screening assay, IC50 determination). Details: agonist capsaicin, inhibition of increase in intracellular calcium.
T1 construct: expressed in transfected cells
Assay type: cell-based
Experimental: 1. hVR1 FLIPR (Fluorometric Image Plate Reader) screening assay
Transfected CHO cells, stably expessing hVR1 (15,000 cells/well) are seeded in 50 ul media in a black clear bottom 384 plate (Greiner) and grown in a humidified incubator (37° C., 2% CO2), 24-30 hours prior to experiment.
Subsequently, the media is removed from the cell plate by inversion and 2 μM Fluo-4 is added using a multidrop (Labsystems). Following the 40 minutes dye incubation in the dark at 37° C. and 2% CO2, the extracellular dye present is washed away using an EMBLA (Scatron), leaving the cells in 40 ul of assay buffer (1×HBSS, 10 mM D-Glucose, 1 mM CaCl2, 10 mM HEPES, 10×7.5% NaHCO3 and 2.5 mM Probenecid).
FLIPR Assay—IC50 Determination Protocol
For IC50 determinations the fluorescence is read using FLIPR filter 1 (em […]). A cellular baseline recording is taken for 30 seconds, followed by a 20 μl addition of 10, titrated half-log concentrations of the test compound, yielding cellular concentration ranging from 3 μM to 0.1 nM. Data is collected every 2 seconds for a further 5 minutes prior to the addition of a VR1 agonist solution: either 50 nM solution of capsaicin or MES (2-[N-morpholino]ethanesulfonic acid) buffer (pH 5.2), by the FLIPR pipettor. The FLIPR continues to collect data for a further 4 minutes. […] This consequently leading to a reduction in fluorescence signal and providing a reduced fluorescence reading, compared with no compound, buffer controls. Data is exported by the FLIPR program as a sum of fluorescence calculated under the curve upon the addition of capsaicin. […]
FLIPR (Fluorometric Image Plate Reader) screening assay with HEK T-REX hVR1. […]
For IC50 determinations the fluorescence is read using FLIPR filter 1 (em […]). […] This consequently leading to a reduction in fluorescence signal and providing a reduced fluorescence reading, compared with no compound, buffer controls. Data is exported by the FLIPR program as a sum of fluorescence calculated under the curie upon the addition of capsaicin. […]

T1 sequence (Q8NER1 whole entry): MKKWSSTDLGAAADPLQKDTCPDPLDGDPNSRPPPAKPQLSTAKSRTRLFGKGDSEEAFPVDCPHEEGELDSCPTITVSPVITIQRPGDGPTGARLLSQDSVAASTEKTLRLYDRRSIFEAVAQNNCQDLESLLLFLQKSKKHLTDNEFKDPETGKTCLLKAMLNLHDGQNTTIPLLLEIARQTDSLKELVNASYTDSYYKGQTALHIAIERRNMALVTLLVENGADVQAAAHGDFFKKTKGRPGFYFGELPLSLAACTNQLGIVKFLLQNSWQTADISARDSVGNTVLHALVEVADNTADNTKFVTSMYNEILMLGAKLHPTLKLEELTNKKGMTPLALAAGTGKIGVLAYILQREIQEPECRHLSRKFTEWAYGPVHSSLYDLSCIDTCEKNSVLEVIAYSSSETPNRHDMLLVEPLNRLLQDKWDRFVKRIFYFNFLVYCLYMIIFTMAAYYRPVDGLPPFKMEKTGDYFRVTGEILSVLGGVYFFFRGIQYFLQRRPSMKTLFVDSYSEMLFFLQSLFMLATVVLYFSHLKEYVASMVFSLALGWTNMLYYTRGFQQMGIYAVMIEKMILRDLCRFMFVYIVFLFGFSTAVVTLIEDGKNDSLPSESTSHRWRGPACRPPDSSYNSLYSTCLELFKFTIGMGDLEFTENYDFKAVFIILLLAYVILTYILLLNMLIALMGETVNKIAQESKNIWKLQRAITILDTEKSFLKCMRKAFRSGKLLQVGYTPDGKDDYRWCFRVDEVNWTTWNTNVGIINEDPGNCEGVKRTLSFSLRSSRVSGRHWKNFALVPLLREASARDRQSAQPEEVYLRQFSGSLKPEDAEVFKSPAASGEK

IC50 [nM]	SMILES
226	Cc1nc2cc(C(=O)Nc3ccc(C(C)(C)C)cc3)ccc2s1 [Example 1, N-4-tert-butylphenyl-2-methyl-1,3-benzothiazole-5-carboxamide]
2780	Cc1nc2cc(C(=O)NCc3ccc(C(F)(F)F)cc3)ccc2s1 [Example 7, 2-methyl-N-[4-trifluoromethylbenzyl]-1,3-benzothiazole-5 carboxamide]
1660	Cc1nc2cc(C(=O)NCc3cccc(C(F)(F)F)c3)ccc2s1 [Example 8, 2-methyl-N-[3-trifluoromethylbenzyl]-1,3-benzothiazole-5-carboxamide]
